Measurements: patent US11903925B2, “Compositions for preventing and treating pulmonary injury due to ionizing radiation or cytotoxic drugs” (RepoCeuticals A/S, priority 2015, dated 2024)
Blank lines part the entries; values can stand above or below the compound they belong to.

How the values were obtained:
lung = conditions: use of cytotoxic chemotherapeutic agents for cancer; cited from earlier work
[1] = Solubility of melatonin in water / aqueous solution; assay type: physicochemical; conditions: straightforward attempts at dissolving melatonin in water
Protocol: The pharmaceutical composition of the present invention may be in the form of a powder, solution, emulsion, suspension, or micellar, microsphere, microcapsular, nanoparticulate or liposomal preparation. Melatonin and most of its analogues, derivatives and metabolites are only sparingly soluble in water, straightforward attempts at dissolving melatonin in water yielding a maximum melatonin concentration of only 0.1 mg/mL. Higher concentrations of melatonin are needed if aqueous preparations of melatonin are to be administered in a convenient manner, e.g. by the inhalation of an aerosol of the preparation, to the airways epithelium at the concentrations estimated to be necessary to exert a protective action against free radical damage. A method of achieving this is outlined below.
A further formulation is to supply the composition as a dry powder as described above in a capped vial, to be reconstituted as a solution for nebulization by adding a given volume of sterile water from a second vial, to be used within one hour. The water for dissolving the formulation may contain the empirically determined amount of salts and buffering ions to produce a solution of the composition that has a near-physiological pH and osmolarity with reference to plasma to avoid the provocation of cough and bronchoconstriction on inhalation. […]

[2] = Stability (suitability for use in a pharmaceutical composition); conditions: hence unsuitable for use in a pharmaceutical composition

Compound: Bleomycin
overall rate of pulmonary damage (lung): over 40%

maximum melatonin concentration in water [1]: 0.1 mg/mL
Compound: COc1ccc2[nH]cc(CCNC(C)=O)c2c1 [melatonin, N-acetyl-5-methoxytryptamine]

Compound: COc1ccc(N)c(C(=O)CCNC(C)=O)c1 [N^1-acetyl-5-methoxykynuramine]
stability [2]: unstable
